The numbers were not newly measured in publication PMC4931877 (The Journal of Pharmacology and Experimental Therapeutics, 2016), which cites them from elsewhere.

The test system of this series is γ-secretase. The settings on record: ref Fleisher et al., 2008; Coric et al., 2012; Doody et al., 2013; cited from earlier work.

For `NC(=O)[C@@H](CCC(F)(F)F)N(Cc1ccc(-c2ncon2)cc1F)S(=O)(=O)c1ccc(Cl)cc1` [BMS-708163, (2R)-2-[(4-chlorophenyl)sulfonyl-[[2-fluoro-4-(1,2,4-oxadiazol-3-yl)phenyl]methyl]amino]-5,5,5-trifluoropentanamide], the “outcome of mild-moderate AD clinical trials” value was “Notch-related nonmelanoma skin cancers and/or progression and worsening of cognitive measures”.

On to `CC(C)[C@H](O)C(=O)N[C@@H](C)C(=O)N[C@@H]1C(=O)N(C)CCc2ccccc21` [LY450139], for which the “outcome of mild-moderate AD clinical trials” value was “Notch-related nonmelanoma skin cancers and/or progression and worsening of cognitive measures”.
